Assay results reported in patent US20230338454A1, “FORSYTHIA SUSPENSA COMPONENT AND OPTIONAL PANAX GINSENG COMPONENT AND THE APPLICATION” (priority 2020, published 2023).
Like-named read-outs stand apart in the source and are kept apart here.

Tests used:
[1] = test system: Herpes simplex virus type 1 (HSV-1); test: Effect of drugs on viral cytopathic effect, effective antiviral rate (ER%); assay type: cell-based; conditions: Vero cells, 100TCID50, drug at maximum non-toxic concentration, 72 h, MTT
parainfluenza virus [2] = assay type: in vivo, Kunming mice
Parainfluenza virus [3] = test: Effect of drugs on viral cytopathic effect, effective antiviral rate (ER%); assay type: cell-based; conditions: Vero cells, 100TCID50, drug at maximum non-toxic concentration, 72 h, MTT
[4] = test system: NK cells (YAC-1 target cells); test: Determination of NK cell viability; assay type: in vivo, Kunming mice; conditions: 144 mg/kg; gavage once daily for 30 days; mice
Description: One hundred and fifty-two healthy male mice were subjected to acclimation for 4 days before they were randomly divided into 19 groups: the negative control group, positive control group, forsythin group, 20(R)-ginsenoside Rg3 group, high, middle and low dose groups of panax ginseng-forsythia suspensa composition. […] The drugs were given by gavage, once daily for 30 days, and the negative control group was given the same volume of water. One hour after the last dose, the spleens of animals of each group were aseptically excised to prepare splenocyte suspension. […] Then, the concentration of splenocyte suspension was adjusted to 2×10^7 cells/mL. and the splenocyte suspension was added into a 96-well plate for culturing. […] A triplicate set of tubes was prepared for each of the above items. The 96-well plate was incubated at 37° C. in a 5% CO2 incubator for 4 h. After adding LDH matrix solution and 1 moL/L HCl, the solutions in each parallel well were combined, and the absorbance (ABS) was measured at 490 nm. The NK cell viability was calculated: NK cell viability (%) = (ABS reaction well -ABS natural release well)/(ABS maximum release well -ABS natural release well).

Influenza virus = test: Effect of drugs on viral cytopathic effect, effective antiviral rate (ER%); assay type: cell-based
[5] = test system: Coxsackievirus A16 (CoxA16); test: as above; assay type: cell-based; conditions: Vero cells, 100TCID50, drug at maximum non-toxic concentration, 72 h, MTT
[6] = test system: respiratory syncytial virus (RSV); test: as above; assay type: cell-based; conditions: Vero cells, 100TCID50, drug at maximum non-toxic concentration, 72 h, MTT
[7] = test system: Human embryonic lung fibroblast cell strain; test: Drug toxicity testing (MTT and cytopathic effect methods), maximum non-toxic concentration TD0; conditions: human embryonic lung fibroblasts
HCMV AD169 strain = test: Inhibitory effect on HCMV in vitro (MEC, therapeutic index); assay type: cell-based, human cytomegalovirus; conditions: HCMV AD169, 100 times TCD50, 10 days of culture
Procedure: Human embryonic lung fibroblast cell strain (purchased from Sino Best Biological Technology Co., Ltd.). The cells were cultured and subcultured according to the conventional method.
HCMV AD169 strain was purchased from American Type Culture Collection (ATCC).
Cells were inoculated in a 96-well plate, allowed to grow into monolayers, and inoculated with a virus challenge of 100 times TCD50. Starting from TD0, each drug was diluted stepwise according to 10-fold gradient to prepare 5 concentrations, with 4 wells set for each concentration. In addition, 4 wells of normal cell control and 4 wells of virus control were set.

[8] = mice infected with parainfluenza virus, 13.0 mg/kg/day by gavage, 5 days

CC(C)=CCC[C@](C)(O)[C@H]1CC[C@]2(C)[C@@H]1[C@H](O)C[C@@H]1[C@@]3(C)CC[C@H](O[C@@H]4O[C@H](CO)[C@@H](O)[C@H](O)[C@H]4O[C@@H]4O[C@H](CO)[C@@H](O)[C@H](O)[C@H]4O)C(C)(C)[C@@H]3CC[C@]12C [20(R)-Ginsenoside Rg3, 20(R)-ginsenoside Rg3]
Effective Antiviral Rates (ER%) HSV-I [1]: 83.61^∗∗ %
Lung index (x̅ ±S) (parainfluenza virus [2]; [8]): 1.357±0.050
Lung index Inhibitory rate (%) (parainfluenza virus [2]; [8]): 14.69%
Lung index compared with the infection model group, in words (parainfluenza virus [2]; mice infected with parainfluenza virus, P < 0.05 or P < 0.01): decreased significantly
Effective Antiviral Rates (ER%) Parainfluenza virus (Parainfluenza virus [3]): 82.21^∗∗ %
NK cell viability (%) [4]: 37.34±7.21%
Effective Antiviral Rates (ER%) Influenza virus (Influenza virus): 74.06^∗∗ %
Effective Antiviral Rates (ER%) CoxA16 [5]: 52.33%
Effective Antiviral Rates (ER%) RSV [6]: 79.42^∗∗ %

COc1ccc([C@H]2OCC3C2CO[C@H]3c2ccc(O[C@@H]3OC(CO)[C@@H](O)[C@H](O)C3O)c(OC)c2)cc1OC (stereo partly shown) [Forsythin]
Effective Antiviral Rates (ER%) HSV-I [1]: 85.00^∗∗ %
Lung index (x̅ ±S) (parainfluenza virus [2]; mouse, in vivo, 13 mg/kg/day): 1.335±0.062
Lung index Inhibitory rate (%) (parainfluenza virus [2]; mouse, in vivo, 13 mg/kg/day): 16.10%
Effective Antiviral Rates (ER%) Parainfluenza virus (Parainfluenza virus [3]): 84.96^∗∗ %
NK cell viability (%) [4]: 41.86±7.24%
Effective Antiviral Rates (ER%) Influenza virus (Influenza virus; Vero cells, 100TCID50, drug at maximum non-toxic concentration, 72 h, MTT): 75.38^∗∗ %
Maximum non-toxic concentration TD0 [7]: 40 mg/L
Effective Antiviral Rates (ER%) CoxA16 [5]: 75.08^∗∗ %
Minimum effective concentration MEC (HCMV AD169 strain): 4 mg/L
Effective Antiviral Rates (ER%) RSV [6]: 80.40^∗∗ %
